{"source": "patent US12409182B2", "about": "“Compositions and uses thereof for treatment of idiopathic preterm birth” (UNIVERSITY OF SOUTH FLORIDA, priority 2020, dated 2025)", "key": {"[1]": {"system": "maternal stress induced pregnant mice", "test": "Maternal restraint stress induced preterm birth and fetal growth restriction in wild-type mice", "format": "in vivo", "settings": "for litter size: 0.5 mg/kg daily i.p. GD14 to GD18, maternal stress administered mice; for maternal stress induced fetal growth restriction (pup birth weight) / maternal stress induced preterm birth (gestational length): 0.5 mg/kg daily i.p. GD14 to GD18, restraint stress GD8-GD18, vs placebo", "description": "(§1) Wild-type adult female mice were mated with adult males by housing 1:1 for 4 h (9.00 am-1.00 pm). Pregnancy was confirmed by observing vaginal plug and the presence of sperm in vaginal smears, which was designated as gestation day (GD) 0 dpc (10.00 am). Time-mated pregnant mice were randomly assigned into non-stress or restraint stress (ST) groups. Restraint stress was administered in three sessions for 1 h using standard restraint chambers starting on GD 8 through GD 18, while the control group was left undisturbed during pregnancy. Before first restrained stress administration, daily intraperitoneal injection of CC #1 (0.5 mg/kg) or CC #2 (0.5 mg/kg) or placebo (PBS) was administered in ST-mice from GD14 to GD 18. The timing of delivery was monitored. Pups weight, litter size, numbers of live and dead pups were recorded.\nas §1, with “Experimental design to test effects of CC #1 and CC #2 administration in maternal stress induced pregnant mice (FIG. 2). Wild-type adult” for “Wild-type adult”, “stress was performed in three” for “stress was administered in three”, “daily intraperitoneal (I.P.) injection of” for “daily intraperitoneal injection of”"}, "FKBP51 [2]": {"system": "FKBP51", "test": "Dexamethasone-induced FKBP51 protein levels in decidual cell monolayers (immunoblot)", "format": "cell-based", "settings": "confluent leukocyte-free term decidual cells, 10^-7 M Dex + compound, 24 h", "description": "Three endogenous biochemicals (CC #1, CC #2, CC #3), which exist in human blood/tissues were tested as potential inhibitors of FKBP51 expression/action and confirmed that dexamethasone-induced inhibits FKBP51 expression in decidual cell cultures by all three compounds (FIG. 1)."}, "FKBP51 [3]": {"system": "FKBP51", "settings": "cultured primary human decidual cells; cited from earlier work"}, "Srd5a1 deficient mice": {"system": "Srd5a1 deficient mice", "settings": "Srd5a1 deficient mice (27% delivery rate without treatment); cited from earlier work"}, "[4]": {"system": "Fkbp5+/+ and Fkbp5-/- mice", "test": "Maternal dexamethasone or corticosterone injection, gestational length in Fkbp5+/+ or Fkbp5-/- mice", "format": "in vivo", "settings": "corticosterone 10 mg/kg s.c. daily E8 through E18, Fkbp5+/+ or Fkbp5-/- mice", "description": "Timing of Labor in Fkbp5^+/+ and Fkbp5^−/− Mice. To examine the effect of deletion of the Fkbp5 gene on birth timing, female Fkbp5^+/+ and Fkbp5^−/− mice (6-8 weeks-old) were mated with an adult Fkbp5^+/+ male (12-16 weeks old) by housing 1:1 for 4 h (9.00 am-1.00 pm). Pregnancy was confirmed by the presence of a vaginal plug or sperm in vaginal smears; gestational day (E) was designated at that time (10.00 am) as 0 dpc of pregnancy. The timing of delivery was monitored from E18 through E21 by observing mice every 4 h upon completion of delivery, and gestational length was calculated. Litter size, numbers of live and dead pups were recorded. Additionally, to determine whether there was a relative contribution of fetal genotype on birth timing, female Fkbp5^−/− mice were also mated with an adult male Fkbp5^−/− mice as described above and timing of labor was recorded.\nMaternal Dexamethasone or Corticosterone injection. Dexamethasone-21-phosphate disodium salt (DEX; Sigma-Aldrich, St. Louis, MO) suspended in sterile PBS was administered intraperitoneally at 200 μg/kg. Corticosterone (CORT; Sigma-Aldrich) was dissolved in ethyl alcohol and diluted in PBS before injection and administered subcutaneously at 10 mg/kg. […]"}}, "data": [{"smiles": "CCCCC/C=C/C=C1/C(=O)C=C[C@@H]1C/C=C\\CCCC(=O)O", "note": "[CC #1, 15-deoxy-Δ12,14-prostaglandin J2]", "values": [{"measurement": "litter size", "setting": "[1]", "value": "did not affect litter size"}, {"measurement": "maternal stress induced fetal growth restriction (pup birth weight)", "setting": "[1]", "value": "prevent maternal stress induced FGR"}, {"measurement": "maternal stress induced preterm birth (gestational length)", "setting": "[1]", "value": "prevent maternal stress induced PTB"}, {"measurement": "dexamethasone-induced FKBP51 protein levels", "setting": "FKBP51 [2]", "value": "inhibits dexamethasone-induced FKBP51 protein levels"}]}, {"smiles": "CCCCCCCC/C(=C\\CCCCCCCC(=O)O)[N+](=O)[O-]", "note": "[CC #2, 10-nitro-9E-octadecenoic acid]", "values": [{"measurement": "litter size", "setting": "[1]", "value": "did not affect litter size"}, {"measurement": "maternal stress induced fetal growth restriction (pup birth weight)", "setting": "[1]", "value": "prevent maternal stress induced FGR"}, {"measurement": "maternal stress induced preterm birth (gestational length)", "setting": "[1]", "value": "prevent maternal stress induced PTB"}, {"measurement": "dexamethasone-induced FKBP51 protein levels", "setting": "FKBP51 [2]", "value": "inhibits dexamethasone-induced FKBP51 protein levels"}]}, {"smiles": "CCCCCCCC/C=C(\\CCCCCCCC(=O)O)[N+](=O)[O-]", "note": "[CC #3, 9-nitro-9E-octadecenoic acid]", "values": [{"measurement": "dexamethasone-induced FKBP51 protein levels", "setting": "FKBP51 [2]", "value": "inhibits dexamethasone-induced FKBP51 protein levels"}]}, {"smiles": "CC[C@@H]1C[C@H]2[C@@H]3CCC4=CC(=O)CC[C@@H]4[C@H]3CC[C@]2(C)[C@H]1C(=O)CO", "note": "[Organon 2058]", "values": [{"measurement": "FKBP51 levels", "setting": "FKBP51 [3]", "value": "minimal stimulatory effects"}]}, {"smiles": "CN(C)c1ccc([C@H]2C[C@]3(C)[C@@H](CC[C@]3(O)CCCO)[C@@H]3CCC4=CC(=O)CCC4=C32)cc1", "note": "[ZK98299]", "values": [{"measurement": "parturition rate", "setting": "Srd5a1 deficient mice", "value": 100, "unit": "%"}]}, {"smiles": "C[C@]12C[C@H](O)[C@H]3[C@@H](CCC4=CC(=O)CC[C@@]43C)[C@@H]1CC[C@@H]2C(=O)CO", "note": "[corticosterone, Corticosterone]", "values": [{"measurement": "gestational length", "setting": "[4]", "value": "did not shorten gestation"}]}, {"smiles": "CC(=O)O[C@]1(C(C)=O)CC[C@H]2[C@@H]3C[C@H](C)C4=CC(=O)CC[C@]4(C)[C@H]3CC[C@@]21C", "note": "[medroxyprogesterone acetate]", "values": [{"measurement": "FKBP51 levels", "setting": "FKBP51 [3]", "value": "up-regulated"}]}]}
